From ChEMBL document CHEMBL2177051
Active and inactive are the calls of the source. No cut-off for these calls is given here.

Experiments:
Details in all cases: Homo sapiens
HEK293 [1] = assay: Inhibition of proteasome beta1 in HEK cell lysates at 1 to 100 uM after 1 hr by MV151 competitive SDS-PAGE analysis
HEK293 [2] = assay: Inhibition of proteasome beta5 in HEK cell lysates at 1 to 100 uM after 1 hr by MV151 competitive SDS-PAGE analysis
HEK293 [3] = assay: Inhibition of proteasome beta2 in HEK cell lysates at 1 to 100 uM after 1 hr by MV151 competitive SDS-PAGE analysis
HEK293 [4] = assay: Inhibition of proteasome beta5 in HEK cell at 5 uM after 3 hrs by MV151 competitive SDS-PAGE analysis; type: cell-based
HEK293 [5] = assay: Inhibition of proteasome beta1 in HEK cell at 50 uM after 3 hrs by MV151 competitive SDS-PAGE analysis; type: cell-based
HEK293 [6] = assay: Inhibition of proteasome beta2 in HEK cell at 50 uM after 3 hrs by MV151 competitive SDS-PAGE analysis; type: cell-based

Row | Compound | inhibition (HEK293 [1]) | inhibition (HEK293 [2]) | inhibition (HEK293 [3]) | inhibition (HEK293 [4]) | inhibition (HEK293 [5]) | inhibition (HEK293 [6])
1 | CC[C@H](C)[C@H](N)C(=O)N[C@H](C(=O)N[C@@H](CC(C)C)CS(=O)(=O)F)[C@@H](C)OCc1ccccc1 | Active | Active | Active |  |  | 
2 | CC(=O)N[C@@H](CC(C)C)C(=O)N[C@@H](CC(C)C)C(=O)N[C@@H](CC(C)C)C(=O)N[C@@H](CC(C)C)CS(=O)(=O)F | Active | Active | Active |  |  | 
3 | CC(C)C[C@@H](CS(=O)(=O)F)NC(=O)[C@H](CC(C)C)NC(=O)[C@H](CC(C)C)NC(=O)OCc1ccccc1 | Active | Active | Active |  |  | 
4 | CC(C)C[C@@H](CS(=O)(=O)F)NC(=O)[C@H](CC(C)C)NC(=O)[C@H](CC(C)C)NC(=O)[C@H](Cc1ccccc1)N=[N+]=[N-] | Active | Active | Active |  |  | 
5 | CC(C)C[C@@H](CS(=O)(=O)F)NC(=O)[C@H](CC(C)C)NC(=O)[C@H](CC(C)C)NC(=O)[C@@H](N)CC(C)C | Active | Active | Active |  |  | 
6 | CC(C)C[C@@H](CS(=O)(=O)F)NC(=O)[C@H](Cc1ccccc1)NC(=O)c1cnccn1 | inactive | inactive | inactive |  |  | 
7 | CC[C@H](C)[C@H](NC(C)=O)C(=O)N[C@H](C(=O)N[C@H](C(=O)N[C@@H](CC(C)C)CS(=O)(=O)F)[C@@H](C)O)[C@@H](C)CC | Active | Active | Active |  |  | 
8 | CC(C)C[C@@H](CS(=O)(=O)F)NC(=O)[C@H](CC(C)C)NC(=O)[C@@H](N)CC(C)C | Active | Active | Active |  |  | 
9 | CC(C)C[C@@H](CS(=O)(=O)F)NC(=O)[C@@H](N)[C@@H](C)OCc1ccccc1 | inactive | inactive | inactive |  |  | 
10 | CC(C)C[C@@H](CS(=O)(=O)F)NC(=O)[C@H](CC(C)C)NC(=O)[C@H](CC(C)C)NC(=O)OC(C)(C)C | Active | Active | Active |  |  | 
11 | CC[C@H](C)[C@H](N)C(=O)N[C@H](C(=O)N[C@@H](CC(C)C)CS(=O)(=O)F)[C@@H](C)O | Active | Active | Active |  |  | 
12 | CC[C@H](C)[C@H](NC(=O)OC(C)(C)C)C(=O)N[C@H](C(=O)N[C@@H](CC(C)C)CS(=O)(=O)F)[C@@H](C)OCc1ccccc1 | Active | Active | Active |  |  | 
13 | CC[C@H](C)[C@H](NC(C)=O)C(=O)N[C@H](C(=O)N[C@H](C(=O)N[C@@H](CC(C)C)CS(=O)(=O)F)[C@@H](C)OCc1ccccc1)[C@@H](C)CC | Active | Active | Active |  |  | 
14 | CC[C@H](C)[C@H](NC(=O)OC(C)(C)C)C(=O)N[C@H](C(=O)N[C@H](C(=O)N[C@@H](CC(C)C)CS(=O)(=O)F)[C@@H](C)OCc1ccccc1)[C@@H](C)CC | Active | Active | Active |  |  | 
15 | CC(C)C[C@@H](CS(=O)(=O)F)NC(=O)[C@@H](N)Cc1ccccc1 | inactive | inactive | inactive |  |  | 
16 | CC[C@H](C)[C@H](N)C(=O)N[C@H](C(=O)N[C@H](C(=O)N[C@@H](CC(C)C)CS(=O)(=O)F)[C@@H](C)O)[C@@H](C)CC | Active | Active | Active |  |  | 
17 | CC(C)C[C@@H](CS(=O)(=O)F)NC(=O)[C@H](CC(C)C)NC(=O)[C@H](CC(C)C)NC(=O)[C@H](CC(C)C)NC(=O)OCc1ccccc1 | Active | Active | Active | Active | Active | Active
18 | CC[C@H](C)[C@H](NC(=O)CN=[N+]=[N-])C(=O)N[C@H](C(=O)N[C@H](C(=O)N[C@@H](CC(C)C)CS(=O)(=O)F)[C@@H](C)OC(C)=O)[C@@H](C)CC | Active | Active | Active |  |  | 
19 | CC[C@H](C)[C@H](NC(=O)CN=[N+]=[N-])C(=O)N[C@H](C(=O)N[C@H](C(=O)N[C@@H](CC(C)C)CS(=O)(=O)F)[C@@H](C)O)[C@@H](C)CC | Active | Active | Active |  |  | 
20 | CC[C@H](C)[C@H](N)C(=O)N[C@H](C(=O)N[C@H](C(=O)N[C@@H](CC(C)C)CS(=O)(=O)F)[C@@H](C)OCc1ccccc1)[C@@H](C)CC | Active | Active | Active |  |  | 
